In PMC2944038 (Biochemical pharmacology, 2010):

Experiments:
[1] = molecular target: T1, human apical sodium-dependent bile acid transporter (ASBT; SLC10A2) (Homo sapiens, UniProt Q12908); details: known inhibitors selected for this study; cited from earlier work
T1 sequence (Q12908 1-348): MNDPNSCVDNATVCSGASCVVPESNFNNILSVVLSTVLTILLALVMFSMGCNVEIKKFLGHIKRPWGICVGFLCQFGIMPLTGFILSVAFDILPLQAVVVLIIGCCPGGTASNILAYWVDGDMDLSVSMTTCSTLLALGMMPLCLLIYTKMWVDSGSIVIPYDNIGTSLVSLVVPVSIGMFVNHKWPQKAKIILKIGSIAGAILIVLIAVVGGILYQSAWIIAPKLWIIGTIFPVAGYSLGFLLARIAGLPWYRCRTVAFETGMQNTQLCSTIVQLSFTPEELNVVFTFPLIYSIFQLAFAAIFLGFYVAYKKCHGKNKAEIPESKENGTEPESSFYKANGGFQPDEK

[2] = molecular target: T2, excitatory amino acid transporter 4 (EAAT4; SLC1A6) (Homo sapiens, UniProt P48664); experiment: EAAT4 inhibition: glutamate uptake into EAAT4-HEK cells; format: cell-based; details: for EAAT4 inhibitor: with consideration of cytotoxicity
T2 sequence (P48664 1-564): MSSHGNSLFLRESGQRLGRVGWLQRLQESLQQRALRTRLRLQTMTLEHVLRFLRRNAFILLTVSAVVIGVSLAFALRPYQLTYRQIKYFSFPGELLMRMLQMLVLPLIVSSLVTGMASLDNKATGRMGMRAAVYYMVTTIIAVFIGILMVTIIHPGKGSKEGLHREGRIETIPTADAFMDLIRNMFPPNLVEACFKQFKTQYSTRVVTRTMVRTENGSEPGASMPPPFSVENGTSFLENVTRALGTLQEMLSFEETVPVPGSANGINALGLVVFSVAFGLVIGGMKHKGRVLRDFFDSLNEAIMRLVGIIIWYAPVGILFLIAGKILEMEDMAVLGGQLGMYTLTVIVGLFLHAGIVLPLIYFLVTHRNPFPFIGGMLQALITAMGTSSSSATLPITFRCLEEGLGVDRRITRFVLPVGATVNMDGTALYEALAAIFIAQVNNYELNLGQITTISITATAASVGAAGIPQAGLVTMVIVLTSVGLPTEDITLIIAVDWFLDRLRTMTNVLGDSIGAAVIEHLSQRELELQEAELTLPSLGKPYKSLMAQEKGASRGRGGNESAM

[3] = molecular target: T1, human apical sodium-dependent bile acid transporter (ASBT; SLC10A2); experiment: ASBT inhibition: taurocholate uptake into ASBT-MDCK cells; format: cell-based; details: for ASBT inhibitor: with consideration of cytotoxicity
[4] = molecular target: T3, human organic cation/carnitine transporter (OCTN2; SLC22A5) (Homo sapiens, UniProt O76082); experiment: OCTN2 inhibition: L-carnitine uptake into OCTN2-MDCK cells; format: cell-based; details: for OCTN2 inhibitor: with consideration of cytotoxicity
T3 sequence (O76082 1-557): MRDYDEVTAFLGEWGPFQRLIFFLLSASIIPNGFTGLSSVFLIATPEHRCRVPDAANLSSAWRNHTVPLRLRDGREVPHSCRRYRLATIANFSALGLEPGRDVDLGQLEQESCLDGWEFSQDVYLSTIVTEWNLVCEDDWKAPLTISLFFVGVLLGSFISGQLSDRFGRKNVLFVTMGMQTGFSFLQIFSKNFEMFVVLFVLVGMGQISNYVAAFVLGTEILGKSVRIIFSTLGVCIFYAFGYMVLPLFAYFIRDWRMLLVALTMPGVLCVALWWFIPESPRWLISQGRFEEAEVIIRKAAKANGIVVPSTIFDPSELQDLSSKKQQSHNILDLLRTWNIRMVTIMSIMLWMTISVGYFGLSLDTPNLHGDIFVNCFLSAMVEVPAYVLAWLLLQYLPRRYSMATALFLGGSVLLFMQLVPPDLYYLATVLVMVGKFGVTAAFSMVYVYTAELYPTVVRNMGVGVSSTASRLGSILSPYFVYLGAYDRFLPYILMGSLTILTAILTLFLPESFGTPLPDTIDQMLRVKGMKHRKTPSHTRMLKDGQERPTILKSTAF

MDCK cells = experiment: WST-1 cytotoxicity study in MDCK cells; format: cell-based; details: for cytotoxicity in MDCK cells (in words): cytotoxic if cell viability 80% or less, 10 min exposure
HEK cells = details: for cytotoxicity in HEK cells (in words): cytotoxic if cell viability 80% or less, 10 min exposure
[5] = WST-1 cytotoxicity study in MDCK cells; format: cell-based; details: dog, MDCK cells (ASBT-MDCK or OCTN2-MDCK, not specified)
[6] = EAAT4-HEK, drug concentration not given

| SMILES | EAAT4 inhibitor [2] | ASBT inhibitor [3] | cytotoxicity in MDCK cells (in words) (MDCK cells) | cytotoxicity in HEK cells (in words) (HEK cells) | also measured |
| --- | --- | --- | --- | --- | --- |
| COc1ccc([C@@H]2Sc3ccccc3N(CCN(C)C)C(=O)[C@@H]2OC(C)=O)cc1 [Diltiazem, diltiazem] |  |  |  |  | ASBT inhibition, previously reported [1]: known to inhibit both transporters |
| CCC(C)(C)C(=O)O[C@H]1C[C@@H](C)C=C2C=C[C@H](C)[C@H](CC[C@@H]3C[C@@H](O)CC(=O)O3)[C@H]21 [Simvastatin, simvastatin] | did not appreciably inhibit EAAT4 |  |  |  |  |
| COc1ccc2c(c1)c(CC(=O)O)c(C)n2C(=O)c1ccc(Cl)cc1 [Indomethacin, indomethacin] |  | only inhibited ASBT |  |  | OCTN2 inhibitor [4]: only inhibited ASBT |
| CN(C)CCCN1c2ccccc2Sc2ccc(Cl)cc21 [chlorpromazine] |  |  | not cytotoxic in MDCK cells |  |  |
| Clc1ccc(C(Cn2ccnc2)OCc2ccsc2Cl)c(Cl)c1 (stereo not shown) [Tioconazole, tioconazole] | non-inhibitors of EAAT4 |  | not in MDCK cells | reduced cell viability in HEK cells |  |
| CCOC(=O)C1=C(COCCN)NC(C)=C(C(=O)OC)C1c1ccccc1Cl (stereo not shown) [Amlodipine, amlodipine] |  |  | cytotoxic to MDCK cells |  | viability at 10 min, 100 μM [5]: 101 ± 6%; viability at 10 min, 500 μM [5]: 39.3%; cells non-viable (MDCK cells; MDCK cells): 60% |
| COC(=O)C1=C(C)NC(C)=C(C(=O)OCCN(C)Cc2ccccc2)C1c1cccc([N+](=O)[O-])c1 (stereo not shown) [Nicardipine, nicardipine] |  | only inhibited ASBT | cytotoxic to MDCK cells |  |  |
| CN1CCN(C2=Nc3cc(Cl)ccc3Nc3ccccc32)CC1 [Clozapine, clozapine] | non-inhibitors of EAAT4 |  | not cytotoxic in MDCK cells | reduced cell viability in HEK cells |  |
| CN(C)CCC(c1ccc(Cl)cc1)c1ccccn1 (stereo not shown) [Chlorpheniramine, chlorpheniramine] |  | only inhibited OCTN2 |  |  |  |
| CC(C)n1c(/C=C/C(O)CC(O)CC(=O)O)c(-c2ccc(F)cc2)c2ccccc21 (stereo not shown) [Fluvastatin, fluvastatin] | inhibited all three transporters |  |  | without cytotoxicity | taurocholate uptake [3]: 4.51%; ASBT inhibition ([3]; ASBT-MDCK, drug concentration not given): over 90%; OCTN2 inhibition (reduction of L-carnitine uptake) ([4]; OCTN2-MDCK, drug concentration not given): ~35%; EAAT4 inhibition [2, 6]: ~35%; glutamate uptake [2, 6]: about 60%; viability at 10 min [5]: 107%; ASBT inhibition, previously reported [1]: competitively inhibits ASBT |
| CC[C@H](C)C(=O)O[C@H]1C[C@@H](C)C=C2C=C[C@H](C)[C@H](CC[C@@H]3C[C@@H](O)CC(=O)O3)[C@H]21 [Lovastatin, lovastatin] | did not appreciably inhibit EAAT4 |  |  |  |  |
| COC(=O)C1=C(C)NC(C)=C(C(=O)OCC(C)C)C1c1ccccc1[N+](=O)[O-] (stereo not shown) [Nisoldipine, nisoldipine] |  | only inhibited ASBT | cytotoxic to MDCK cells |  | OCTN2 inhibitor [4]: not classed as OCTN2 inhibitors; viability at 10 min, 100 μM [5]: 56% |
| CSc1ccc2c(c1)N(CCC1CCCCN1C)c1ccccc1S2 (stereo not shown) [Thioridazine, thioridazine] | non-inhibitors of EAAT4 |  | not cytotoxic in MDCK cells | reduced cell viability in HEK cells | viable cells / cell viability (HEK cells; HEK cells, 10 min, drug concentration not given): 73.5%; ASBT inhibition, previously reported [1]: known to inhibit both transporters |
